Consider 15 molecules from ChEMBL document CHEMBL4680144, “N-thiadiazole-4-hydroxy-2-quinolone-3-carboxamides bearing heteroaromatic rings as novel antibacterial agents: Design, synthesis, biological evaluation and target identification” (Eur J Med Chem, 2020).

Assay [1] concerns Staphylococcus aureus. The assay can be described thus: Antibacterial activity against wild type methicillin-sensitive Staphylococcus aureus ATCC 29213 assessed as inhibition of bacterial growth incubated for 18 to 24 hrs by broth microdilution method. Format: functional. The note with it: time 18-24 hrs. On the technique in general: Dilution methods test growth across graded concentrations, often in twofold steps.

A short description of assay [2]: Inhibition of Staphylococcus aureus Gyrase B using linear pBR322 DNA as substrate incubated for 30 mins in presence of ATP by ADP-Glo assay. (ADP-Glo turns the ADP formed in a reaction into a luminescent signal.)
Assay [3] concerns Staphylococcus epidermidis. As to the kind of experiment: Antibacterial activity against methicillin-sensitive Staphylococcus epidermidis clinical isolate 15-3 assessed as inhibition of bacterial growth incubated for 18 to 24 hrs by broth microdilution method. Format: functional. The note with it: time 18-24 hrs.
Assay [4] concerns Staphylococcus aureus. As to the kind of experiment: Antibacterial activity against methicillin-resistant Staphylococcus aureus clinical isolate 15-2 assessed as inhibition of bacterial growth incubated for 18 to 24 hrs by broth microdilution method. The format is functional. The note with it: time 18-24 hrs.
In assay [5] the test system is Staphylococcus epidermidis. The assay can be described thus: Antibacterial activity against methicillin-resistant Staphylococcus epidermidis clinical isolate 15-2 assessed as inhibition of bacterial growth incubated for 18 to 24 hrs by broth microdilution method. The settings on record: time 18-24 hrs. The format is functional.
Assay [6] concerns Enterococcus faecium. The assay can be described thus: Antibacterial activity against Enterococcus faecium clinical isolate 15-2 assessed as inhibition of bacterial growth incubated for 18 to 24 hrs by broth microdilution method. Format: functional. The note with it: time 18-24 hrs.
Assay [7] relates to Staphylococcus aureus. As to the kind of experiment: Antibacterial activity against methicillin-resistant Staphylococcus aureus clinical isolate 15-3 assessed as inhibition of bacterial growth incubated for 18 to 24 hrs by broth microdilution method. The format is functional. The settings on record: time 18-24 hrs.
The subject of assay [8] is Enterococcus faecalis. The assay can be described thus: Antibacterial activity against Enterococcus faecalis clinical isolate 15-2 assessed as inhibition of bacterial growth incubated for 18 to 24 hrs by broth microdilution method. The format is functional. The note with it: time 18-24 hrs.
The subject of assay [9] is Staphylococcus aureus. As to the kind of experiment: Antibacterial activity against methicillin-resistant Staphylococcus aureus clinical isolate 15-7 assessed as inhibition of bacterial growth incubated for 18 to 24 hrs by broth microdilution method. Format: functional. The note with it: time 18-24 hrs.
For assay [10], the system named is Staphylococcus aureus. The assay can be described thus: Antibacterial activity against methicillin resistant and vancomycin-intermediate sensitive Staphylococcus aureus ATCC 700699 assessed as inhibition of bacterial growth incubated for 18 to 24 hrs by broth microdilution method. Format: functional. The settings on record: time 18-24 hrs.
The test system of assay [11] is Enterococcus faecalis. As to the kind of experiment: Antibacterial activity against vancomycin-resistant Enterococcus faecalis ATCC 51575 assessed as inhibition of bacterial growth incubated for 18 to 24 hrs by broth microdilution method. Format: functional. The note with it: time 18-24 hrs.
The subject of assay [12] is Enterococcus faecium. As to the kind of experiment: Antibacterial activity against Enterococcus faecium clinical isolate 15-1 assessed as inhibition of bacterial growth incubated for 18 to 24 hrs by broth microdilution method. Format: functional. The note with it: time 18-24 hrs.
For assay [13], the system named is Enterococcus faecalis. As to the kind of experiment: Antibacterial activity against vancomycin-resistant Enterococcus faecalis ATCC 700802 assessed as inhibition of bacterial growth incubated for 18 to 24 hrs by broth microdilution method. Format: functional. The note with it: time 18-24 hrs.
The test system of assay [14] is Staphylococcus aureus. As to the kind of experiment: Antibacterial activity against methicillin-resistant Staphylococcus aureus clinical isolate 15-8 assessed as inhibition of bacterial growth incubated for 18 to 24 hrs by broth microdilution method. Format: functional. The settings on record: time 18-24 hrs.
Assay [15] has as its system Staphylococcus epidermidis. As to the kind of experiment: Antibacterial activity against methicillin-resistant Staphylococcus epidermidis clinical isolate 15-3 assessed as inhibition of bacterial growth incubated for 18 to 24 hrs by broth microdilution method. Format: functional. The note with it: time 18-24 hrs.
For assay [16], the system named is Enterococcus faecalis. The assay can be described thus: Antibacterial activity against Enterococcus faecalis clinical isolate 15-1 assessed as inhibition of bacterial growth incubated for 18 to 24 hrs by broth microdilution method. The format is functional. The note with it: time 18-24 hrs.
In assay [17] the test system is Staphylococcus epidermidis. As to the kind of experiment: Antibacterial activity against methicillin-resistant Staphylococcus epidermidis clinical isolate 15-1 assessed as inhibition of bacterial growth incubated for 18 to 24 hrs by broth microdilution method. Format: functional. The settings on record: time 18-24 hrs.
Assay [18] relates to Staphylococcus aureus. The assay can be described thus: Antibacterial activity against methicillin-resistant Staphylococcus aureus clinical isolate 15-9 assessed as inhibition of bacterial growth incubated for 18 to 24 hrs by broth microdilution method. The format is functional. The note with it: time 18-24 hrs.
The subject of assay [19] is Staphylococcus aureus. As to the kind of experiment: Antibacterial activity against methicillin resistant and vancomycin-intermediate sensitive Staphylococcus aureus ATCC 700788 assessed as inhibition of bacterial growth incubated for 18 to 24 hrs by broth microdilution method. The format is functional. The settings on record: time 18-24 hrs.
For assay [20], the system named is Staphylococcus aureus. The assay can be described thus: Antibacterial activity against methicillin-resistant Staphylococcus aureus clinical isolate 15-1 assessed as inhibition of bacterial growth incubated for 18 to 24 hrs by broth microdilution method. The format is functional. The settings on record: time 18-24 hrs.
Assay [21] has as its system Staphylococcus aureus. The assay can be described thus: Antibacterial activity against methicillin-resistant Staphylococcus aureus clinical isolate 15-6 assessed as inhibition of bacterial growth incubated for 18 to 24 hrs by broth microdilution method. The format is functional. The settings on record: time 18-24 hrs.
The subject of assay [22] is Staphylococcus epidermidis. The assay can be described thus: Antibacterial activity against methicillin-sensitive Staphylococcus epidermidis clinical isolate 15-4 assessed as inhibition of bacterial growth incubated for 18 to 24 hrs by broth microdilution method. The format is functional. The settings on record: time 18-24 hrs.
Assay [23] deals with Enterococcus faecalis. The assay can be described thus: Antibacterial activity against vancomycin-resistant Enterococcus faecalis ATCC 51299 assessed as inhibition of bacterial growth incubated for 18 to 24 hrs by broth microdilution method. Format: functional. The note with it: time 18-24 hrs.

The structures appear in SMILES notation. In brackets after ≈: the same amount, converted by molar mass.

`CCn1c(=O)c(C(=O)Nc2nnc(-c3ccc(C)cc3)s2)c(O)c2ccccc21`: in assay [1], the minimum inhibitory concentration (MIC) amounted to 6.25 µg/mL (≈ 15.4 µM). In [2], the IC50 came out at 640 nM.

For `CCn1c(=O)c(C(=O)Nc2nnc(-c3ccccc3F)s2)c(O)c2ccccc21`, the MIC in assay [1] turned out to be 12.5 µg/mL (≈ 30.5 µM). Besides, the half-maximal inhibitory concentration (IC50) in [2] was 990 nM.

On to `CCOc1ccccc1-c1nnc(NC(=O)c2c(O)c3ccccc3n(CC)c2=O)s1`, for which the minimal inhibitory concentration (MIC) in [1] stood at 12.5 µg/mL (≈ 28.6 µM). Moreover, the IC50 in [2] was determined as 2350 nM.

With `CCCc1nnc(NC(=O)c2c(O)c3ccccc3n(CC)c2=O)s1`, the MIC in [3] worked out at 2 µg/mL (≈ 5.58 µM); in assay [4], 2 µg/mL (≈ 5.58 µM); in assay [5], 4 µg/mL (≈ 11.2 µM); in assay [6], 4 µg/mL (≈ 11.2 µM); in assay [7], 2 µg/mL (≈ 5.58 µM); in [8], 4 µg/mL (≈ 11.2 µM). Moreover, the minimal inhibitory concentration (MIC) in [9] turned out to be 4 µg/mL (≈ 11.2 µM); in assay [1] it was 0.39 µg/mL (≈ 1.09 µM); in [10], 4 µg/mL (≈ 11.2 µM); in [11] it was 8 µg/mL (≈ 22.3 µM); in assay [12], 2 µg/mL (≈ 5.58 µM); in [13], 8 µg/mL (≈ 22.3 µM). Moreover, the MIC in assay [14] amounted to 2 µg/mL (≈ 5.58 µM); in [15] it was 2 µg/mL (≈ 5.58 µM); in [16] it was 4 µg/mL (≈ 11.2 µM); in [17], 2 µg/mL (≈ 5.58 µM); in [18], 4 µg/mL (≈ 11.2 µM); in assay [19], 4 µg/mL (≈ 11.2 µM). For the same molecule, the MIC is 2 µg/mL (≈ 5.58 µM) in assay [20], 2 µg/mL (≈ 5.58 µM) in assay [21], 2 µg/mL (≈ 5.58 µM) in assay [22] and 8 µg/mL (≈ 22.3 µM) in [23]. Also, in assay [2], the IC50 was 270 nM.

Consider `CCCn1c(=O)c(C(=O)Nc2nncs2)c(O)c2ccccc21`, for which the minimal inhibitory concentration (MIC) in assay [1] stood at 3.12 µg/mL (≈ 9.44 µM). In addition, the IC50 in assay [2] was determined as 460 nM.

As for `CCn1c(=O)c(C(=O)Nc2nnc(-c3ccn(C)n3)s2)c(O)c2ccccc21`, the MIC in assay [1] amounted to 3.12 µg/mL (≈ 7.87 µM). Also, in [2], the IC50 turned out to be 490 nM.

With `CCn1c(=O)c(C(=O)Nc2nnc(C3CC3)s2)c(O)c2ccccc21`, the minimum inhibitory concentration (MIC) in [1] amounted to 3.12 µg/mL (≈ 8.75 µM). The half-inhibitory concentration (IC50) in assay [2] was determined as 580 nM.

With `CCn1c(=O)c(C(=O)Nc2nnc(-c3ccncc3)s2)c(O)c2ccccc21`, the MIC in assay [1] was 1.56 µg/mL (≈ 3.97 µM). Besides, the IC50 in assay [2] came to 240 nM.

In the case of `CCn1c(=O)c(C(=O)Nc2nnc(C3CCCC3)s2)c(O)c2ccccc21`, the MIC in assay [1] was 6.25 µg/mL (≈ 16.3 µM). In addition, in assay [2], the IC50 came out at 550 nM.

Regarding `CCCCCCc1nnc(NC(=O)c2c(O)c3ccccc3n(CC)c2=O)s1`, the minimum inhibitory concentration (MIC) in assay [1] was determined as 12.5 µg/mL (≈ 31.2 µM). The IC50 in [2] came out at 350 nM.

Take `CCn1c(=O)c(C(=O)Nc2nnc(-c3ccc(F)cc3)s2)c(O)c2ccccc21`: the MIC in assay [1] was 25 µg/mL (≈ 60.9 µM). Also, the concentration for half-maximal inhibition (IC50) in [2] was 2300 nM.

As for `Cn1c(=O)c(C(=O)Nc2nncs2)c(O)c2ccccc21`, the MIC in assay [1] was 6.25 µg/mL (≈ 20.7 µM). Besides, the concentration for half-maximal inhibition (IC50) in assay [2] came out at 190 nM.

As to `CCn1c(=O)c(C(=O)Nc2nnc(-c3cccs3)s2)c(O)c2ccccc21`, the MIC in assay [1] was determined as 3.12 µg/mL (≈ 7.83 µM). In addition, the half-inhibitory concentration (IC50) in assay [2] came to 220 nM.

As to `CCn1c(=O)c(C(=O)Nc2nnc(-c3ccc(Cl)cc3)s2)c(O)c2ccccc21`, in assay [1], the MIC is 12.5 µg/mL (≈ 29.3 µM). The IC50 in assay [2] was determined as 1460 nM.

As to `CCn1c(=O)c(C(=O)Nc2nnc(-c3ccc(OC)cc3)s2)c(O)c2ccccc21`, in assay [1], the MIC was 3.12 µg/mL (≈ 7.39 µM). Further, the concentration for half-maximal inhibition (IC50) in assay [2] was found to be 1140 nM.

For orientation: MIC means the lowest concentration that inhibits growth of the organism. Usually IC50 stands for the concentration that gives 50% inhibition.
